Laboratory results reported in patent US20160024127A1, “COMPOUNDS AND USES THEREOF FOR THE MODULATION OF HEMOGLOBIN” (GLOBAL BLOOD THERAPEUTICS, INC., priority 2013, published 2016).

Assay: Pharmacokinetics after oral administration of the monophosphate prodrug to rats (blood and plasma)
Assay type: in vivo
Experimental: A sodium salt of the monophosphate prodrug compound (Formula (V-B)) was administered orally to rats in a dose of 10 mg/kg (5 mL/kg). The vehicle administered was dimethylacetamide:PEG400:30% HβCD (5:25:70). The pharmacokinetic results are tabulated below and graphically illustrated in FIG. 1.

whole blood Cmax following administration of the compound of formula (III), compared with Cmax after the monophosphate prodrug (compound of formula (III) administered at the same dose) | Structure (SMILES) | conversion of the prodrug to compound of formula (III) (oral, 10 mg/kg, rats)
equivalent | CC(C)n1nccc1-c1ncccc1COc1cccc(O)c1C=O [Formula (III), 2-hydroxy-6-([2-[1-(propan-2-yl)-1H-pyrazol-5-yl]pyridin-3-yl]methoxy)benzaldehyde] | 
 | CC(C)n1nccc1-c1ncccc1COc1cccc(OP(=O)(O)O)c1C=O [Formula (V-B), 2-formyl-3-((2-(1-isopropyl-1H-pyraol-5-yl)pyridin-3-yl)methoxy)phenyl dihydrogen phosphate] | efficiently con veiled to compound of formula (III)
